Laboratory results reported in patent publication US9982188B2, “Near-infrared emitters” (MISSOURI STATE UNIVERSITY, priority 2015, dated 2018).
Entries after “also recorded” stand apart in the source; their conditions may differ.

Legend:
[1] = related amide-cyanoximes, Ref [1, 2] / [1, 3]; cited from earlier work
[2] = potentiometric pH titration for pKa (ionization constant); format: physicochemical; conditions: isopropyl alcohol (ISA)/water mixture, aqueous pKa, 23° C., Yasuda-Shedlovsky extrapolation to zero ISA
Procedure: Ionization constants for the new cyanoxime compound 1 [H(DECO)] were determined using a Sirius Analytical Instruments automated titration station (Sussex, UK) equipped with a temperature-controlled bath. The titration was performed three times at 23° C. in an isopropyl alcohol (ISA) water mixture as described below. The weighed amount of compound 1 (3.08 mg) was placed into a titration vial. Sixteen milliliters of ISA water was delivered automatically to the vial. The pH of the solution was adjusted to 10 by adding 0.5 M KOH automatically. The titration with 0.5M HCl was performed automatically until a pH value of 2.5 was reached. To perform the second and third titrations, an additional volume of ISA and water (1 mL and 1 mL) was delivered automatically to the titration vial, respectively. The datasets for the three titrations were combined in the RefinementPro program to create a Multiset for pKa calculation. Also, these datasets were combined and extrapolated to a zero ISA concentration.
The aqueous pKa was calculated with a Yasuda-Shedlovsky extrapolation in the RefinementPro software.

[3] = solubility observations in water and organic solvents; format: physicochemical

pKa [2] | SMILES | pKa (pH titration) [1] | solubility in organic solvents ([3]; solvent named in the value) | solubility in water ([3]; water)
 | N#C/C(=N\O)C(N)=O [H(ACO)] | 5.034 ± 0.002 |  | 
 | CN(C)C(=O)/C(C#N)=N/O [H(DCO)] | 5.52 ± 0.03 |  | 
5.622 ± 0.005 | CCN(CC)C(=O)/C(C#N)=N/O [compound 1, 2-cyano-2-oximino-N,N′-diethylaminoacetamide] |  | soluble in most organic solvents except hydrocarbons | not well soluble in water; also recorded: insoluble in water
